This passage reports IC50 and inhibition results from patent US5342851A, “Substituted thiazole derivatives useful as platelet aggregation inhibitors” (McNeil-PPC, Inc., priority 1992, dated 1994).

The subject of assay [1] is activated platelets (125I-fibrinogen binding). In words: Fibrinogen Binding (125I-fibrinogen binding to activated platelets). The following applies: read-out: Binding (IC50, concentration of compound which provides 50% fibrinogen binding); thrombin-stimulated platelets; 0.15 μM 125I-fibrinogen. Here is the method: The compounds of the invention as identified above are evaluated for platelet aggregation inhibition activity as indicated by the percentage of nonaggregated platelets which are available for binding in accordance with the following procedure.
Briefly, 40 mL of PRP (obtained from Biological Specialty Corp., Lansdale, Pa.) are centrifuged at 120×g to remove contaminating red cells. Aspirin (50 μM) is added and the PRP is incubated at 37° C. for 20 minutes. […] Platelets are concentrated by a 300×g centrifugation (10 minutes) and the pellet is resuspended in 4 mL. of Tyrode's buffer. The platelet suspension (4 mL) is gel-filtered through a Sepharose-2B column (50 mL bed volume). […] The binding reaction is performed in polystyrene tubes (final volume […]). Reagents are added in the following order: 80 mL of Tyrode's buffer, 50 mL of CaCl2 (final concentration (f.c.) […]) and 50 mL of thrombin (f.c. 0.1 unit/mL). The platelet suspension is then added and the mixture is allowed to incubate at room temperature for 2 minutes. Hirudin (50 mL, f.c. 0.5 unit/mL) is immediately added to prevent the catalytic activity of thrombin. […] The mixture is incubated for 10 minutes at room temperature. To terminate the binding reaction the platelets are sedimented (10,000×g for 3 minutes) through silicone oil (3:1 hi-phenol 550/methyl silicone 200, W. F. Nye, Inc., New Bedford, Mass.), in an Eppendorf centrifuge.
The amount of platelet radioactivity measured in the presence of nonlabeled fibrinogen (4 mg/mL) is considered the nonspecific binding. All samples are repeated in triplicate.
Positive percentages of fibrinogen binding indicates higher activity for inhibiting platelet aggregation since only non-aggregated or free platelets are available for fibrinogen binding.

Assay [2] relates to platelets (gel-filtered platelet rich plasma). In words: Platelet Aggregation Inhibition Activity (agonist thrombin or ADP, light transmission). The class given is cell-based. As to conditions: for inhibition at 20 µM: Homo sapiens, thrombin or ADP agonist, read-out: Aggregation (percentage increase in light transmission).
Protocol: The percentage of platelet aggregation is calculated as an increase in light transmission of drug treated platelet concentrate versus control treated platelet concentrate. Blood is obtained from drug free, normal donors into tubes containing 0.13M sodium citrate (two sources are routinely used: platelet concentrate obtained from Biological Specialty Corp., Lansdale, Pa. or whole blood obtained from donors). Platelet rich plasma (PRP) is collected by centrifugation of the concentrate or whole blood at 130×g for 15 minutes at 25° C. The PRP (5 mL) is gel filtered through Sepharose 2B (bed volume 50 mL), and the platelet count is adjusted to 2×10^7 platelets per sample. The following constituents are added to a siliconized cuvette: 250 μL of the concentrated platelet filtrate, 100 μL of Tyrode's buffer (0.14M NaCl, 0.0027M KCl, 0.012M NaHCO3, 0.76 mM Na2 HPO4, 0.0055M glucose and 2 mg/mL BSA pH 7.4), 50 μL of 2 mM calcium and test drug (50 mL).
Aggregation is monitored in a dual channel Chrono-log Aggregometer for three minutes following the addition of agonist (thrombin 50 μL of 1 unit/mL, or ADP 50 μL of 100 μM). The final assay volume is 500 μL. The reaction takes place at 37° C. The peak aggregation response is calculated as the increase in light transmission units over a three minute period. The difference of the increase in light transmission between control and drug treated platelets is then expressed as a percent of the nondrug treated controls. […] A percentage increase in light transmission indicates platelet aggregation inhibition activity for the tested compound.
Setting [3] is: read-out: Aggregation (IC50, concentration at which the increase in light transmission equals 50%), thrombin or ADP agonist, 37° C., three minutes.

Read-outs that look alike come from different tables or passages of the source.

Regarding `Cc1ccc(-c2csc(-n3ncc(C(=O)NCCCN)c3C(F)(F)F)n2)cc1` [Example 123], the IC50 in assay [1] and in assay [2] (setting [3]) was 17 µM in each case.
With `CCCCNCCCNC(=O)c1ccc(-c2csc(-c3ccc(OC)cc3)n2)cc1` [Example 226], the IC50 amounted to 4.3 µM in assay [1] and 3.8 µM in assay [2] (setting [3]).
`CCN(CC)CCCCNC(=O)c1ccc(-c2csc(-c3ccc(Cl)cc3)n2)cc1` [Example 179]: the results for the IC50 in assay [1] and in assay [2] (setting [3]) were 2.7 µM and 5.8 µM, respectively.
Regarding `NCCCCNC(=O)c1cnn(-c2nc(-c3cccc(C(F)(F)F)c3)cs2)c1C(F)(F)F` [Example 62], the IC50 in assay [1] stood at 8.3 µM; in assay [2] (setting [3]) it was 4.6 µM.
For the molecule `NCCNC(=O)c1ccc(-c2csc(-c3ccc(C(F)(F)F)cc3)n2)cc1` [Example 196], the IC50 in assay [1] turned out to be 6 µM; in assay [2] (setting [3]), 3.7 µM.
`Cc1c(C(=O)NCCCN2CCCCC2)cnn1-c1nc(-c2cccc(C(F)(F)F)c2)cs1` [Example 91]: the figures for the IC50 in assay [1] and in assay [2] (setting [3]) were 10 µM and 5 µM, respectively.
For `CN(C)CCNC(=O)c1ccc(-c2csc(-c3ccc(C(F)(F)F)cc3)n2)cc1` [Example 174], the IC50 in assay [1] is 1.8 µM. Further, in assay [2], the inhibition at 20 µM is 85%.
As for `CCCCN(CCCC)CCCNC(=O)c1cnn(-c2nc(-c3cccc(C(F)(F)F)c3)cs2)c1C(F)(F)F` [Example 38], the IC50 in assay [1] worked out at 75 µM; in assay [2] (setting [3]), 56 µM.
As for `CCCCNCCCNC(=O)c1ccc(-c2csc(-c3ccc(Cl)cc3)n2)cc1` [Example 224], the values for the IC50 in assay [1] and in assay [2] (setting [3]) were 3.3 µM and 6.1 µM, respectively.
In the same order, the values of `CCN(CC)CCCNC(=O)c1cnn(-c2nc(-c3cccc(C(F)(F)F)c3)cs2)c1C(F)(F)F` [Example 37] are 4 µM and 15 µM.
On to `CCN(CC)CCCNC(=O)c1cnn(-c2nc(-c3ccc(C)cc3)cs2)c1C(F)(F)F` [Example 43], for which the IC50 stood at 70 µM in assay [1] and 6 µM in assay [2] (setting [3]).
For `CN1CCN(CCCNC(=O)c2cnn(-c3nc(-c4cccc(C(F)(F)F)c4)cs3)c2-c2ccccc2)CC1` [Example 120], the IC50 in assay [1] came out at 23 µM; in assay [2] (setting [3]), 13 µM.
Take `Cc1ccc(-c2nc(-c3ccc(C(=O)NCCCN(C)C)cc3)cs2)cc1` [Example 154]: the IC50 in assay [1] was 10 µM; in assay [2] (setting [3]), 7.2 µM.
As for `N=C(N)NCCCNC(=O)c1cnn(-c2nc(-c3cccc(C(F)(F)F)c3)cs2)c1C(F)(F)F` [Example 128, 2-[4-(3-Guanidinopropylcarbamoyl)-5-(trifluoromethyl)-pyrazol-1-yl]-4-(3-trifluoromethylphenyl)thiazole Nitrate], the IC50 in assay [1] was 17.5 µM; in assay [2] (read-out: Aggregation (IC50, concentration at which the increase in light transmission equals 50%)), 118 µM.
For the molecule `CCN(CC)CCNC(=O)c1ccc(-c2csc(-c3ccc(C)cc3)n2)cc1` [Example 176], the IC50 in assay [1] worked out at 2.5 µM; in assay [2] (setting [3]), 4 µM.
On to `CCCNCCCNC(=O)c1cnn(-c2nc(-c3cccc(C(F)(F)F)c3)cs2)c1C(F)(F)F` [Example 114], for which the figures for the IC50 in assay [1] and in assay [2] (setting [3]) were 10 µM and 7 µM, respectively.
Consider `CCN(CC)CCCNC(=O)c1cnn(-c2nc(-c3cccc(OC)c3)cs2)c1C(F)(F)F` [Example 40], for which the IC50 in assay [1] was found to be 65 µM; in assay [2] (setting [3]), 30 µM.
In the same order, the values of `CCN(CC)CCCNC(=O)c1cnn(-c2nc(-c3cccc(C(F)(F)F)c3)c(Br)s2)c1C(F)(F)F` [Example 46] are 11.3 µM and 2.7 µM.
Turning to `NCCCNC(=O)c1cnn(-c2nc(-c3cccc(C(F)(F)F)c3)c(Br)s2)c1C(F)(F)F` [Example 124], the IC50 came to 5.5 µM in assay [1] and 3.2 µM in assay [2] (setting [3]).
`O=C(NCCCN1CCCC1)c1cnn(-c2nc(-c3cccc(C(F)(F)F)c3)cs2)c1C(F)(F)F` [Example 90]: the IC50 in assay [1] amounted to 14 µM; in assay [2] (setting [3]) it was 15 µM.
For the molecule `NCCCNC(=O)c1cnn(-c2nc(-c3cccc(Cl)c3)cs2)c1C(F)(F)F` [Example 122], the IC50 in assay [1] worked out at 10 µM; in assay [2] (setting [3]) it was 14.7 µM.
Turning to `Cc1ccc(-c2nc(-c3ccc(C(=O)NCCCN4CCCC4=O)cc3)cs2)cc1` [Example 170], the IC50 in assay [1] stood at 10.8 µM. Besides, the inhibition at 20 µM in assay [2] was determined as 90%.
Regarding `CCN(CC)CCCNC(=O)c1ccc(-c2csc(-c3ccc(C)cc3)n2)cc1` [Example 151], the IC50 came to 19 µM in assay [1] and 16.7 µM in assay [2] (setting [3]).
Consider `O=C(NCCCBr)c1ccc(-c2csc(-c3ccc(C(F)(F)F)cc3)n2)cc1` [Example 209], for which the IC50 in assay [1] amounted to 7.8 µM; in assay [2] (setting [3]), 5.5 µM.
In the same order, the values of `CCN(CC)CCCNC(=O)c1ccc(-c2csc(-c3ccc(C(F)(F)F)cc3)n2)cc1` [Example 150] are 4.4 µM and 5 µM.
In the same order, the values of `CCCCNCCCNC(=O)c1cnn(-c2nc(-c3cccc(C(F)(F)F)c3)cs2)c1C(F)(F)F` [Example 113] are 10 µM and 3.1 µM.
For the molecule `CCN(CC)CCCNC(=O)c1ccc(-c2csc(-c3ccc(C(C)(C)C)cc3)n2)cc1` [Example 153], the values for the IC50 in assay [1] and in assay [2] (setting [3]) were 4.3 µM and 15.3 µM, respectively.
